Entries after “also recorded” stand apart in the source; their conditions may differ.
Tests used:
pig kidney fucokinase [1] = biological target: T1, pig kidney fucokinase (Sus scrofa, UniProt I3LTC2); experiment: Effect of metal ions on fucokinase activity; assay type: biochemical; details: for effect on activity when added to incubations containing Mg++ (in words): metal ion at 1 mM
T1 construct: L-Fucokinase was purified to apparent homogeneity from the cytosolic fraction of pig kidney; from tissue; host or cells: pig kidney, cytosolic fraction
T1 sequence (I3LTC2 1-1083): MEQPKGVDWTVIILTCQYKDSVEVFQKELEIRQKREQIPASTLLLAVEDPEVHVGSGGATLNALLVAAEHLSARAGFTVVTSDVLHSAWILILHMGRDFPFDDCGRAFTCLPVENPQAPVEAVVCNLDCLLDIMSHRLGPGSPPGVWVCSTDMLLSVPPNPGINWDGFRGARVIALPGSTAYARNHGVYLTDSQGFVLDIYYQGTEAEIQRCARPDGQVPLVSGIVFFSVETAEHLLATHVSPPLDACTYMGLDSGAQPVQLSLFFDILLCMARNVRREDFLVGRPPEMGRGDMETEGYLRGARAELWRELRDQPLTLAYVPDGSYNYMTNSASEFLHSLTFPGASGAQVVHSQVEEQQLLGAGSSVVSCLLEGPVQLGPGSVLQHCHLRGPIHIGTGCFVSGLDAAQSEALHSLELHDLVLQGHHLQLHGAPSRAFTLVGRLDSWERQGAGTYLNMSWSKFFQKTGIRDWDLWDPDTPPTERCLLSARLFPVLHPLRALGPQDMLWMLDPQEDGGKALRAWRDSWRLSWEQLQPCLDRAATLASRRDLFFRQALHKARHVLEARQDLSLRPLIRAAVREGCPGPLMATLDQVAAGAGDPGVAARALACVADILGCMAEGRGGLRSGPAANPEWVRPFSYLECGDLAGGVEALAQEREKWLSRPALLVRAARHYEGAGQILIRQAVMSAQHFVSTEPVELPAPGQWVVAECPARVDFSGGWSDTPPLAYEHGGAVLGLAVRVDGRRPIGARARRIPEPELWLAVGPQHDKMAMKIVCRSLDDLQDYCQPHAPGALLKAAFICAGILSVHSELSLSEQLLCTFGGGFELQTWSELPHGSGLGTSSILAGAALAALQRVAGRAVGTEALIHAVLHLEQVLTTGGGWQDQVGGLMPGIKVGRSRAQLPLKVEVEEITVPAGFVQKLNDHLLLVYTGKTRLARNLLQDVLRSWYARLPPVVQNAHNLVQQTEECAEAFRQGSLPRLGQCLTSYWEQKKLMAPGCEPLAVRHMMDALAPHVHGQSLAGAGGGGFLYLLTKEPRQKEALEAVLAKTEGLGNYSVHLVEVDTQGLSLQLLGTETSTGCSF
Procedure: Increasing concentrations of the metal ions shown were added to incubations of the purified enzyme with ^3 H-fucose and ATP, and the formation of fucose-1-P was measured as described below. Metal ions tested were as follows: Mg^++, filled circles; Fe^++, filled diamonds; Co^++, filled triangles; Mn^++, filled squares.
(§1) Fucokinase activity was assayed by measuring the production of L-fucose-1-Pfrom [^3 H]L-fucose and ATP. The incubation mixtures contained the following components (final concentrations) in a total volume of 150 μl: L-fucose, 0.1 mM; ATP, 5 mM; MgSO4, 5 mM; Tris-HCl buffer, pH 8.0, 65 mM; and various amounts of enzyme at the different stages of purification. Incubations were at 37° C. for 10 minutes, and reactions were terminated by heating the reaction mixtures in a boiling water bath for 1 minute. The incubation mixtures were then applied to a column of DE-52 contained in a Pasteur pipette, and the column was washed with at least 5 column volumes of 10 mM (NH4)HCO3 to remove the unbound material. The [^3 H]fucose-1-P was then eluted with 500 mM (NH4)HCO3. Aliquots of the eluates were assayed for their radioactive content by subjecting a portion to scintillation counting.
Co^++ and Mn^++ were also stimulatory with maximum activity occurring at about 3 to 5 mM, but the maximum activity was only about 25% to 33% of that observed with Mg^++.

pig kidney fucokinase [2] = biological target: T1, pig kidney fucokinase; experiment: Specificity of fucokinase for phosphate donor (nucleotides); assay type: biochemical; details: for activity as phosphate donor (in words): nucleotide added at 1 mM; for Specific Activity: nucleotide added at 1 mM as phosphate donor
Procedure: as §1
The specificity of the nucleoside triphosphate was also examined by testing the ability of a variety of nucleotides to serve as phosphate donors in the phosphorylation of [^3 H]L-fucose. […] In addition, no activity is observed with any nucleoside diphosphates or monophosphates.

pig kidney fucokinase [3] = biological target: T1, pig kidney fucokinase; experiment: Inhibition of [3H]L-fucose phosphorylation by unlabeled monosaccharides; assay type: biochemical; details: for Relative Activity (%): unlabeled monosaccharide 500 μM, radiolabeled L-fucose substrate 100 μM; for inhibition of phosphorylation of [3H]L-fucose (in words): unlabeled sugar 500 μM
Procedure: as §1
Although it was possible to get a reasonable assessment of the sugar specificity of the kinase from the above experiment, it was not possible to test sugars such as D-fucose, since these sugars are not available in radioactive form. Thus, these unlabeled sugars were tested for their ability to inhibit the phosphorylation of [^3 H]L-fucose. The rationale for this experiment is that a sugar that inhibits the phosphorylation of L-fucose would probably compete with L-fucose for the phosphorylation (i.e., active) site.

[4] = tested on: pig liver L-fucokinase preparation; details: cited from earlier work
pig kidney fucokinase [5] = biological target: T1, pig kidney fucokinase; experiment: Sugar specificity of purified fucokinase (radiolabeled sugars as phosphate acceptors); assay type: biochemical; details: for Specific Activity: radiolabeled sugar 100 μM as phosphate acceptor
Procedure: as §1
The specificity of the kinase for various sugar substrates was examined in two different ways. In the first set of experiments, various radiolabeled sugars were tested as phosphate acceptors for the purified enzyme using the ion-exchange chromatography method for assay of activity. […] D-Arabinose, which has the same configuration at carbons 1 through 4 as L-fucose, was also a reasonable substrate for phosphorylation, and was about 10% as effective as L-fucose. On the other hand, all of the other sugars were ineffective as phosphate acceptors.

[6] = biological target: T2, pig kidney fucokinase (110 kDa band) (Sus scrofa, UniProt I3LTC2); experiment: Photoaffinity labeling of the fucokinase with 8-azido-ATP[32P]; assay type: binding; details: incubation with probe, exposure to UV light
T2 construct: L-Fucokinase was purified to apparent homogeneity from the cytosolic fraction of pig kidney; from tissue; host or cells: pig kidney, cytosolic fraction
T2 sequence (I3LTC2 1-1083): T1 sequence (I3LTC2 1-1083)
Procedure: The purified enzyme was incubated for 20 seconds with azido-ATP[^32 P], and the mixture was exposed to UV for 90 seconds. The reaction was stopped by adding loading buffer and the mixture subjected to SDS-PAGE. Radioactive bands were detected by exposure to film. Lanes are as follows: Lane 1, Probe+enzyme, but no UV; Lane 2, Probe+enzyme+UV; Lanes 3 through 6. Probe+enzyme+0.3, 0.6, 0.9, and 1.2 mM ATP+exposure to UV light; lanes 7 and 8, 0.6 and 1.2 mM GTP+probe+exposure to UV light: lanes 9 and 10, 0.6 and 1.2 mM ITP+probe+exposure to UV light. In lanes 11 and 12, the enzyme was incubated with N3 -GTP[^32 P ] and then exposed to UV light (lane 12) or not exposed to UV light (lane 11). Lane 13 is a control of enzyme+N3 -ATP[^32 P]+exposure to UV light.
Enzyme, at various stages of purity, was mixed with 8-azido-ATP[^32 P] in buffer, and allowed to incubate for 20 sec. in an ice bath. 8-Azido-ATP[^32 P] was prepared as previously described (16). After incubation, the reaction mixture was exposed to short wave UV light for about 90 sec. to activate the azido group, and the protein was subjected to SDS gel electrophoresis to separate the proteins. The gels were dried and exposed to film to locate the radioactive bands and were also stained with Coomassie blue to locate the various proteins. The specificity of the labeling was determined by examining the effect of various concentrations of unlabeled ATP or other nucleotides on the labeling of the protein by N3 -ATP[^32 P]. Various controls were also run, such as one in which exposure to UV was omitted.
Lanes 11-13 of FIG. 3 show the results of another experiment designed to determine whether 8-N3 -GTP[^32 P] could label the fucokinase. […] These experiments indicate that the fucokinase is quite specific for ATP.

## [Cu+2] [Cu^++]
Pig kidney fucokinase [1]
  stimulation of enzyme activity by metal ion (in words): inactive
  effect on activity when added to incubations containing Mg++ (in words): completely inhibited activity

## [Fe+2] [Fe^++]
Pig kidney fucokinase [1]
  metal ion concentration at optimum (maximum) activity: about 10 mM
  stimulation of enzyme activity by metal ion (in words): nearly the same degree as Mg^++

## Nc1ncnc2c1ncn2[C@@H]1O[C@H](COP(=O)(O)O)[C@@H](O)[C@H]1O [AMP]
Pig kidney fucokinase [2]
  activity as phosphate donor (in words): Inactive

## C[C@@H](O)[C@@H](O)[C@H](O)[C@H](O)C=O [D-rhamnose]
Pig kidney fucokinase [3]
  Relative Activity (%): 102%

## Nc1ccn([C@@H]2O[C@H](COP(=O)(O)OP(=O)(O)OP(=O)(O)O)[C@@H](O)[C@H]2O)c(=O)n1 [CTP]
Pig kidney fucokinase [2]
  Specific Activity: 0.05 nmoles/mg protein/10 min
[4]
  use as phosphate donor (in words): could also use

## O=c1ccn([C@@H]2O[C@H](COP(=O)(O)O)[C@@H](O)[C@H]2O)c(=O)[nH]1 [UMP]
Pig kidney fucokinase [2]
  activity as phosphate donor (in words): Inactive

## Nc1ccn([C@@H]2O[C@H](COP(=O)(O)O)[C@@H](O)[C@H]2O)c(=O)n1 [CMP]
Pig kidney fucokinase [2]
  activity as phosphate donor (in words): Inactive

## [Mg+2] [Mg^++]
Pig kidney fucokinase [1]
  stimulation of enzyme activity by metal ion (in words): gave the best stimulation

## [Hg+2] [Hg^++]
Pig kidney fucokinase [1]
  stimulation of enzyme activity by metal ion (in words): inactive
  effect on activity when added to incubations containing Mg++ (in words): completely inhibited activity

## C[C@@H](O)[C@H](O)[C@H](O)[C@@H](O)C=O [D-fucose]
Pig kidney fucokinase [3]
  Relative Activity (%): 102%
  inhibition of phosphorylation of [3H]L-fucose (in words): ineffective as inhibitors

## O=CC[C@@H](O)[C@H](O)[C@H](O)CO [2-deoxy-D-glucose]
Pig kidney fucokinase [3]
  Relative Activity (%): 92%
  inhibition of phosphorylation of [3H]L-fucose (in words): ineffective as inhibitors

## [Mo+2] [Mo^++]
Pig kidney fucokinase [1]
  stimulation of enzyme activity by metal ion (in words): inactive

## C[C@H](O)[C@@H](O)[C@@H](O)[C@H](O)C=O [L-fucose]
Pig kidney fucokinase [5]; purified enzyme
  activity as phosphate acceptor (in words): by far the best substrate; also recorded: active as phosphate acceptors
Pig kidney fucokinase [5]
  Specific Activity: 11.8 nmole/mg protein
Pig kidney fucokinase [3]
  Relative Activity (%): 23%
  inhibition of phosphorylation of [3H]L-fucose (in words): reasonable inhibitor

## O=C[C@@H](O)[C@H](O)[C@H](O)CO [D-arabinose]
Pig kidney fucokinase [5]; purified enzyme
  activity as phosphate acceptor (in words): active as phosphate acceptors
Pig kidney fucokinase [5]; purified enzyme, sugar as phosphate acceptor
  rate of phosphorylation relative to L-fucose: about 10%
Pig kidney fucokinase [5]
  Specific Activity: 1.1 nmole/mg protein
Pig kidney fucokinase [3]
  Relative Activity (%): 80%
  inhibition of phosphorylation of [3H]L-fucose (in words): inhibited although considerably less so than the L-fucose

## O=c1ccn([C@@H]2O[C@H](COP(=O)(O)OP(=O)(O)O)[C@@H](O)[C@H]2O)c(=O)[nH]1 [UDP]
Pig kidney fucokinase [2]
  activity as phosphate donor (in words): Inactive

## O=c1ccn([C@@H]2O[C@H](COP(=O)(O)OP(=O)(O)OP(=O)(O)O)[C@@H](O)[C@H]2O)c(=O)[nH]1 [UTP]
Pig kidney fucokinase [2]
  Specific Activity: 0.04 nmoles/mg protein/10 min
[4]
  use as phosphate donor (in words): could also use

## Nc1nc2c(ncn2[C@@H]2O[C@H](COP(=O)(O)OP(=O)(O)O)[C@@H](O)[C@H]2O)c(=O)[nH]1 [GDP]
Pig kidney fucokinase [2]
  activity as phosphate donor (in words): Inactive

## O=C[C@H](O)[C@@H](O)[C@H](O)CO [D-xylose]
Pig kidney fucokinase [5]
  Specific Activity: 0 nmole/mg protein
Pig kidney fucokinase [3]
  Relative Activity (%): 103%

## Nc1ncnc2c1ncn2[C@@H]1O[C@H](COP(=O)(O)OP(=O)(O)O)[C@@H](O)[C@H]1O [ADP]
Pig kidney fucokinase [2]
  activity as phosphate donor (in words): Inactive

## 8-N3 -GTP[^32 P]
[6]
  labeling of the 110 kDa protein by photoprobe (in words): did not give rise to labeled protein

## C[C@H](O)[C@H](O)[C@@H](O)[C@@H](O)C=O [L-rhamnose]
Pig kidney fucokinase [3]
  inhibition of phosphorylation of [3H]L-fucose (in words): ineffective as inhibitors
[4]
  phosphorylation of sugar by the about 70-fold purified preparation (in words): considerable activity for phosphorylating

## [Fe+3] [Fe^+++]
Pig kidney fucokinase [1]
  stimulation of enzyme activity by metal ion (in words): inactive

## Nc1nc2c(ncn2[C@@H]2O[C@H](COP(=O)(O)O)[C@@H](O)[C@H]2O)c(=O)[nH]1 [GMP]
Pig kidney fucokinase [2]
  activity as phosphate donor (in words): Inactive

## [Ni+2] [Ni^++]
Pig kidney fucokinase [1]
  stimulation of enzyme activity by metal ion (in words): inactive

## [Ca+2] [Ca^++]
Pig kidney fucokinase [1]
  stimulation of enzyme activity by metal ion (in words): inactive

## O=C[C@H](O)[C@H](O)[C@H](O)CO [D-ribose]
Pig kidney fucokinase [5]
  Specific Activity: 0 nmole/mg protein
Pig kidney fucokinase [3]
  Relative Activity (%): 96%
[4]
  phosphorylation of sugar by the about 70-fold purified preparation (in words): considerable activity for phosphorylating

## Nc1ccn([C@@H]2O[C@H](COP(=O)(O)OP(=O)(O)O)[C@@H](O)[C@H]2O)c(=O)n1 [CDP]
Pig kidney fucokinase [2]
  activity as phosphate donor (in words): Inactive

## [Zn+2] [Zn^++]
Pig kidney fucokinase [1]
  stimulation of enzyme activity by metal ion (in words): inactive
  effect on activity when added to incubations containing Mg++ (in words): completely inhibited activity

Reference: US6090605A, “Purified porcine kidney L-fucose kinase” (The Board of Trustees of the University of Arkansas, priority 1998, dated 2000)
